Measured values as given in patent US20260232709A1, “COMPOSITION COMPRISING MELOSIDE FOR ALLEVIATING HAIR LOSS AND IMPROVING HAIR GROWTH” (MORECHEM CO., LTD., priority 2024, published 2026).
“Also recorded” adds a separate entry of the source.

Experiments:
DKK1 = DKK1 expression in DHT-treated HDPC supernatant (ELISA); format: cell-based, human; conditions: HDPC treated with DHT, 30 or 100 ppm, 1 day, FIG. 7
Experimental: HDPC were treated with DHT to increase DKK1 expression, and then treated with Meloside A or L at concentrations of 30 or 100 ppm, respectively, for 1 day to obtain the cell supernatant. For comparison, HDPC treated with Dihydrotestosterone (DHT) but without Meloside A and L were used as the untreated group, and HDPC treated with 100 μM Minoxidil were used as the positive control group.
The increase or decrease in DKK1 expression level in the obtained cell supernatant was confirmed through an Enzyme-Linked Immunosorbent Assay (ELISA) method, and the results are shown in FIG. 7.

[1] = test system: human dermal papilla cells (HDPC); experiment: Cytotoxicity / growth-proliferation of dermal papilla cells (CCK-8); format: cell-based; conditions: 10, 30, 50, 100 ppm, 1 day, CCK-8, 450 nm, FIG. 1
Experimental: (§1) Human hair dermal papilla cells (HDPC), used in the test examples described below, were cultured in Dulbecco's Modified Eagle Medium (DMEM, WELGENE) supplemented with 10% Fetal Bovine Serum (FBS, WELGENE) and 1% antibiotics (Penicillin-Streptomycin, WELGENE) as the culture medium, in an incubator at 37° C., 5% CO2, and humid conditions.
Specifically, after treating human dermal papilla cells (HDPC) or human outer root sheath cells (ORS) with Meloside A or Meloside L at concentrations of 10, 30, 50, and 100 ppm for 1 day, CCK-8 (Cell Counting Kit-8, Dojindo, EU) reagent was added to the treated HDPC according to the manufacturer's protocol. Absorbance was then measured at a wavelength of 450 nm using a microplate reader (BioTeK, USA), and the extent of HDPC growth/proliferation by Meloside treatment was compared and confirmed against the negative control group (treated with DMEM instead of Meloside A or L).

Androgen Receptor (AR) = experiment: Androgen receptor expression in DHT-treated HDPC (Western blot); format: cell-based, human; conditions: HDPC pre-treated with 1 μM DHT, 30 or 100 ppm, 1 day, FIGS. 3 and 4
Experimental: as §1
Specifically, the following groups were prepared: (i) a negative control group, where neither Dihydrotestosterone (DHT) nor Meloside A and L were treated on human dermal papilla cells (HDPC); (ii) an untreated group, where 1 μM DHT was treated on HDPC, but neither Meloside A nor L was treated; (iii) a positive control group, where 1 μM DHT was treated on HDPC, followed by treatment with 100 μM Minoxidil instead of Meloside A and L; and (iv) a treated group, where HDPC were first treated with 1 μM DHT to activate androgen receptors, and then treated with Meloside A or L at concentrations of 30 or 100 ppm, respectively, for 1 day. After preparation, the HDPC from (i) to (iv) were lysed, and the increase or decrease in the expression level of Androgen Receptor (AR) was confirmed using the Western blot technique. Here, for the analysis of relative expression patterns for each sample, the expression level was normalized based on the expression level of Actin. […]

[2] = test system: reactive oxygen species (ROS); experiment: DHT-induced intracellular reactive oxygen species in HDPC (DCF-DA fluorescence); format: cell-based, human; conditions: 30 or 100 ppm with 100 μg/mL DHT, 24 hours, FIGS. 12 and 13
Experimental: The intracellular reactive oxygen species inhibition effect was evaluated using human hair dermal papilla cells (HDPC). Measurement was performed by utilizing the principle that the non-fluorescent substance 2′,7′-dichlorodihydrofluorescein diacetate (DCF-DA) reacts with intracellularly generated free radicals and oxidizes into the fluorescent substance 2′,7′-dichlorofluorescein (DCF).
Human dermal papilla cells were seeded into 12-well plates at 5.5×10^4 cells/well and cultured for 24 hours in a 37° C., 5% CO2 incubator. Subsequently, samples prepared at various concentrations were treated into each well and cultured for 23 hours in a 37° C., 5% CO2 incubator. For the treated groups, Meloside A or L at 30 or 100 ppm were treated along with DHT. For control groups, HDPC treated with 100 μg/mL DHT but without Meloside A and L, and untreated HDPC (neither Meloside A or L nor DHT) were used. […] After removing DCF-DA and washing twice with PBS, images were taken every 10 minutes for 30 minutes using a fluorescence microscope at Ex 485 nm and Em 535 nm. The level of intracellular reactive oxygen species generation was measured by quantifying fluorescence intensity in […] using Image J, thereby confirming the ROS reduction efficacy of Meloside.

[3] = test system: dermal papilla cells (HDPC); experiment: Protection against DHT-induced death of dermal papilla cells (CCK-8); format: cell-based, human; conditions: 30 or 100 ppm for 1 day, then DHT, FIG. 9
Experimental: Specifically, HDPC were treated with Meloside A or L at concentrations of 30 or 100 ppm, respectively, for 1 day, and then cell death was induced with Dihydrotestosterone (DHT), For comparison, HDPC that were neither treated with Meloside A or L nor with DHT were used as the negative control group. HDPC treated with DHT but without Meloside A and L were used as the untreated group. HDPC treated with 100 μM Minoxidil or 5 mM NAC (N-acetyl cysteine) followed by DHT treatment were used as the positive control group.
CCK-8 (Cell Counting Kit-8, Dojindo, EU) reagent was added to the HDPC according to the manufacturer's protocol, and absorbance was measured at a wavelength of 450 nm using a microplate reader (BioTeK, USA) to confirm the cell viability of dermal papilla cells because of Meloside treatment, compared to the negative control group (treated with DMEM instead of Meloside A or L).

SMILES | DKK1 expression level (DKK1) | cell growth/proliferation (cytotoxicity) of HDPC vs negative control [1] | androgen receptor (AR) expression level, normalized to Actin (Androgen Receptor (AR)) | reactive oxygen species (ROS) generation [2] | cell protective effect against DHT (cell viability) [3]
O=c1cc(-c2ccc(O)c(O)c2)oc2cc(O)c([C@@H]3O[C@H](CO)[C@@H](O)[C@H](O)[C@H]3O[C@@H]3O[C@H](CO)[C@@H](O)[C@H](O)[C@H]3O)c(O)c12 [Meloside L, isoorientin 2″-O-glucoside] | no effect was observed | comparable levels of cell growth/proliferation to the negative control group | concentration-dependent | reduction in reactive oxygen species (ROS) generation | no cell protective effect against DHT was observed
O=c1cc(-c2ccc(O)cc2)oc2cc(O)c([C@@H]3O[C@H](CO)[C@@H](O)[C@H](O)[C@H]3O[C@@H]3O[C@H](CO)[C@@H](O)[C@H](O)[C@H]3O)c(O)c12 [Meloside A, isovitexin 2″-O-glucoside] | concentration-dependent decrease in DKK1 expression | comparable levels of cell growth/proliferation to the negative control group | concentration-dependent; also recorded: superior effect in decreasing the expression level of androgen receptor (AR) compared to Meloside L | reduction in reactive oxygen species (ROS) generation | cell protective effect against DHT was confirmed
